Experimental data: patent publication US20260226064A1, “POLYCYCLIC COMPOUND FOR TREATING NEUROLOGICAL DISEASES AND TUMORS” (Shanghai Institute of Organic Chemistry, Chinese Academy of …, priority 2023, published 2026)

Test system: acetylated microtubule in HEK293T cells
Assay: Microtubule-Stabilizing Activity Assay (acetylated microtubule immunoblot, HEK293T, colchicine challenge)
Format: cell-based
Details: 1 h pre-incubation, then colchicine 1 μM 3 h, relative to CNDR-51657 at 500 nM = 1.00; for Microtubule-Stabilizing Activity 50 nM: compound 50 nM; for Microtubule-Stabilizing Activity 500 nM: compound 500 nM
Protocol: Compound solvent: 100% dimethyl sulfoxide (DMSO). Cell line: HEK293T (ATCC, CRL3216). Culture conditions: Cells were cultured in Dulbecco's Modified Eagle's Medium (DMEM) containing 10% fetal bovine serum and 1% penicillin/streptomycin. Cells were cultured at 37° C. in a Thermo-Fisher incubator with a humidified atmosphere of 5% carbon dioxide.
One day prior to the experiment, 100,000 cells were seeded at a density of 200,000 cells/ml in a 24-well plate.
On the day of the experiment, 20 μl of PBS phosphate buffer containing the test compound at experimental concentrations or an equivalent volume of DMSO was added to each well. After incubating at 37° C. for 1 hour, colchicine was added to each well at a final concentration of 1 μM, followed by an additional 3-hour incubation at 37° C. The plate was then placed on ice. The medium in each well was removed, and the cells were washed with ice-cold PBS. After aspirating the PBS, 0.1 mL of ice-cold RIPA lysis buffer (containing 0.5% sodium deoxycholate, 0.1% SDS, 1% NP-40, 5 mM EDTA, pH 8.0) was quickly added. Prior to use, a commercial protease inhibitor cocktail (1:500) and 1 μM deacetylase inhibitor Trichostatin A (Sangon Biotech Co., Ltd.) were added to the cell lysis buffer. The cell lysate were transferred to a 1.5 ml centrifuge tube, sonicated, and centrifuged at 13,000 rpm for 10 minutes. The supernatant was collected, and protein concentration was determined using the BCA assay.
Based on existing literature (Black, 1989; Kurt, 2011), acetylated microtubule was used as an indicator of microtubule polymerization to assess the microtubule-stabilizing efficacy of the compounds. HEK293T cell lysates were analyzed by SDS-PAGE (7.5% gel) and immunoblotted using acetylated microtubule antibody (1:20,000, Sigma-Aldrich, T7451) and α-microtubule antibody (1:2,000, Proteintech, 11224-1-AP). After incubation with fluorescent dye-conjugated IgG (1:40,000, Licor), the blots were visualized using an Odyssey-Dlx imaging system. Grayscale analysis was performed using ImageJ.
The compound activity was quantified with the microtubule-stabilizing activity of CNDR-51657 (C5) (Jane, 2016) at 500 nM as 1.00.

SMILES | Microtubule-Stabilizing Activity 50 nM | Microtubule-Stabilizing Activity 500 nM
C[C@H](Nc1c(-c2c(F)cc(OC[C@@H]3[C@@H]4CNC[C@@H]43)cc2F)c(Cl)nc2ncnn12)C(F)(F)F [Example 31, 6-(4-(((1R,5S,6s)-3-Azabicyclo[3.1.0]hex-6-yl)methoxy)-2,6-difluorophenyl)-5-chloro-N—((S)-1,1,1-trifluoropropan-2-yl)-[1,2,4]triazolo[1,5-a]pyrimidin-7-amine] | 0.35 | 1.25
CC(C)[C@@H](C)Nc1c(-c2c(F)cc(OCC3[C@H]4CN(C)C[C@@H]34)cc2F)c(Cl)nc2ncnn12 (stereo partly drawn) [Example 22, 5-Chloro-6-(2,6-difluoro-4-(((1R,5S,6r)-3-methyl-3-azabicyclo[3.1.0]hex-6-yl)methoxy)phenyl)-N—((R)-3-methylbutan-2-yl)-[1,2,4]triazolo[1,5-a]pyrimidin-7-amine] | 1.88 | 1.61
C[C@H](Nc1c(-c2c(F)cc(OC3CC4(CCN(C)CC4)C3)cc2F)c(Cl)nc2ncnn12)C(F)(F)F [Example 8, (S)-6-(4-((7-Methyl-7-azaspiro[3.5]nonan-2-yl)oxy)-2,6-difluorophenyl)-5-chloro-N-(1,1,1-trifluoropropan-2-yl)-[1,2,4]triazolo[1,5-a]pyrimidin-7-amine] | 0.43 | 0.31
C[C@@H](Nc1c(-c2c(F)cc(C#C[C@@H]3[C@H]4CNC[C@@H]34)cc2F)c(Cl)nc2ncnn12)C1CCC1.Cl [Example 45, 6-(4-(((1R,5S,6s)-3-Azabicyclo[3.1.0]hex-6-yl)ethynyl)-2,6-difluorophenyl)-5-chloro-N—((R)-1-cyclobutylethyl)-[1,2,4]triazolo[1,5-a]pyrimidin-7-amine hydrochloride] | 1.1 | 1.3
CC(C)[C@@H](C)Nc1c(-c2c(F)cc(/C=C/[C@@H]3[C@H]4CNC[C@@H]34)cc2F)c(Cl)nc2ncnn12.Cl [Example 51, 6-(4-((E)-2-((1R,5S,6s)-3-Azabicyclo[3.1.0]hexan-6-yl)vinyl)-2,6-difluorophenyl)-5-chloro-N—((R)-3-methylbutan-2-yl)-[1,2,4]triazolo[1,5-a]pyrimidin-7-amine hydrochloride] |  | 1.85
C[C@H](Nc1c(-c2c(F)cc(OC3CC4(CNC4)C3)cc2F)c(Cl)nc2ncnn12)C(F)(F)F [Example 3, (S)-6-(4-((2-Azaspiro[3.3]heptan-6-yl)oxy)-2,6-difluorophenyl)-5-chloro-N-(1,1,1-trifluoropropan-2-yl)-[1,2,4]triazolo[1,5-a]pyrimidin-7-amine] | 0.36 | 0.49
Cl.Fc1cc(/C=C/[C@@H]2[C@H]3CNC[C@@H]23)cc(F)c1-c1c(Cl)nc2ncnn2c1NCC(F)(F)F [Example 54, 6-(4-((E)-2-((1R,5S,6s)-3-Azabicyclo[3.1.0]hexan-6-yl)vinyl)-2,6-difluorophenyl)-5-chloro-N-(2,2,2-trifluoroethyl)-[1,2,4]triazolo[1,5-a]pyrimidin-7-amine hydrochloride] | 1.56 | 3.12
CC(C)[C@@H](C)Nc1c(-c2c(F)cc(OC3CC4(CCNCC4)C3)cc2F)c(Cl)nc2ncnn12 [Example 5, (R)-6-(4-((7-Azaspiro[3.5]nonan-2-yl)oxy)-2,6-difluorophenyl)-5-chloro-N-(3-methylbutan-2-yl)-[1,2,4]triazolo[1,5-a]pyrimidin-7-amine] | 0.41 | 0.76
Cc1nc2ncnn2c(N[C@H](C)C2CCC2)c1-c1c(F)cc(OCC2[C@H]3CNC[C@@H]23)cc1F (stereo partly drawn) [Example 28, 6-(4-(((1R,5S,6r)-3-Azabicyclo[3.1.0]hexan-6-yl)methoxy)-2,6-difluorophenyl)-5-methyl-N—((R)-1-cyclobutylethyl)-[1,2,4]triazolo[1,5-a]pyrimidin-7-amine] | 1.65 | 1.43
C[C@H](Nc1c(-c2c(F)cc(OC3CC4(CCC(N(C)C)CC4)C3)cc2F)c(Cl)nc2ncnn12)C(F)(F)F (stereo partly drawn) [Example 20, (S)-5-Chloro-6-(2,6-difluoro-4-((7-(dimethylamino)spiro[3.5]nonan-2-yl)oxy)phenyl)-N-(1,1,1-trifluoropropan-2-yl)-[1,2,4]triazolo[1,5-a]pyrimidin-7-amine] | 0.05 | 1.32
CC(C)[C@@H](C)Nc1c(-c2c(F)cc(OC[C@H]3[C@H]4CN(C)C[C@@H]34)cc2F)c(Cl)nc2ncnn12 [Example 30, 5-Chloro-6-(2,6-difluoro-4-(((1R,5S,6s)-3-methyl-3-azabicyclo[3.1.0]hex-6-yl)methoxy)phenyl)-N—((R)-3-methylbutan-2-yl)-[1,2,4]triazolo[1,5-a]pyrimidin-7-amine] | 0.09 | 0.97
Fc1cc(OC[C@H]2[C@@H]3CNC[C@@H]32)cc(F)c1-c1c(Cl)nc2ncnn2c1NCC(F)(F)F [Example 33, 6-(4-(((1R,5S,6r)-3-azabicyclo[3.1.0]hexan-6-yl)methoxy)-2,6-difluorophenyl)-5-chloro-N-(2,2,2-trifluoroethyl)-[1,2,4]triazolo[1,5-a]pyrimidin-7-amine] | 1.46 | 1.64
C[C@H](Nc1c(-c2c(F)cc(O[C@@H]3C[C@H]4CNC[C@H]4C3)cc2F)c(Cl)nc2ncnn12)C(F)(F)F [Example 42, 5-Chloro-6-(2,6-difluoro-4-(((3aR,5s,6aS)-octahydrocyclopenta[c]pyrrol-5-yl)oxy)phenyl)-N—((S)-1,1,1-trifluoropropan-2-yl)-[1,2,4]triazolo[1,5-a]pyrimidin-7-amine] | 0.25 | 0.73
CN1C[C@@H]2C(C#Cc3cc(F)c(-c4c(Cl)nc5ncnn5c4NCC(F)(F)F)c(F)c3)[C@@H]2C1 (stereo partly drawn) [Example 50, 5-Chloro-6-(2,6-difluoro-4-(((1R,5S,6s)-3-methyl-3-azabicyclo[3.1.0]hexan-6-yl)ethynyl)phenyl)-N-(2,2,2-trifluoroethyl)-[1,2,4]triazolo[1,5-a]pyrimidin-7-amine] | 2.0 | 2.78
CNC1CCC2(CC1)CC(Oc1cc(F)c(-c3c(Cl)nc4ncnn4c3N[C@H](C)C(C)C)c(F)c1)C2 (stereo partly drawn) [Example 17, (R)-5-Chloro-6-(2,6-difluoro-4-((7-(methylamino)spiro[3.5]nonan-2-yl)oxy)phenyl)-N-(3-methylbutan-2-yl)-[1,2,4]triazolo[1,5-a]pyrimidin-7-amine] | 0.21 | 0.89
CC(C)[C@@H](C)Nc1c(-c2c(F)cc(/C=C/[C@@H]3[C@H]4CN(C)C[C@@H]34)cc2F)c(Cl)nc2ncnn12 [Example 59] | 0.61 | 1.87
CC(C)[C@@H](C)Nc1c(-c2c(F)cc(O[C@H]3C[C@H]4CNC[C@H]4C3)cc2F)c(Cl)nc2ncnn12 [Example 36, 5-Chloro-6-(2,6-difluoro-4-(((3aR,5r,6aS)-octahydrocyclopenta[c]pyrrol-5-yl)oxy)phenyl)-N—((R)-3-methylbutan-2-yl)-[1,2,4]triazolo[1,5-a]pyrimidin-7-amine] | 0.47 | 0.37
C[C@H](Nc1c(-c2c(F)cc(O[C@H]3C[C@@H]4CN(C)C[C@@H]4C3)cc2F)c(Cl)nc2ncnn12)C(F)(F)F [Example 43, 5-Chloro-6-(2,6-difluoro-4-(((3aR,5s,6aS)-2-methyloctahydrocyclopenta[c]pyrrol-5-yl)oxy)phenyl)-N—((S)-1,1,1-trifluoropropan-2-yl)-[1,2,4]triazolo[1,5-a]pyrimidin-7-amine] | 0.09 | 2.69
CN1C[C@@H]2[C@@H](COc3cc(F)c(-c4c(Cl)nc5ncnn5c4NCC(F)(F)F)c(F)c3)[C@@H]2C1 [Example 34, 5-Chloro-6-(2,6-difluoro-4-(((1R,5S,6r)-3-methyl-3-azabicyclo[3.1.0]hexan-6-yl)methoxy)phenyl)-N-(2,2,2-trifluoroethyl)-[1,2,4]triazolo[1,5-a]pyrimidin-7-amine] | 1.05 | 2.10
